Laboratory results taken from the NIST ThermoML archive (doi:10.1016/j.jct.2006.04.007).

Assay: mn = molality of the nth substance listed, in mol/kg
Settings: 350 kPa, Liquid; for apparent molar heat capacity: Extra sensitive DSC

CNC(C)=O [N-methylacetamide] + O
Settings | apparent molar heat capacity [J/K/mol] | mass density [kg/m3]
328.15 K, m1 = 0.2002 | – | 985.56
328.15 K, m1 = 0.4 | – | 985.32
328.15 K, m1 = 0.599 | – | 985.18
328.15 K, m1 = 0.8028 | – | 985.04
328.15 K, m1 = 1 | – | 984.85
333.15 K, m1 = 0.015 | 260 | –
333.15 K, m1 = 0.04 | 265.7 | –
333.15 K, m1 = 0.07 | 267 | –
333.15 K, m1 = 0.1001 | 271.2 | –
333.15 K, m1 = 0.2002 | 271 | –
333.15 K, m1 = 0.4 | 267.55 | –
333.15 K, m1 = 0.599 | 274.8 | –
333.15 K, m1 = 0.8028 | 266.47 | –
333.15 K, m1 = 1 | 265.86 | –
338.15 K, m1 = 0.015 | 264 | –
338.15 K, m1 = 0.04 | 266.3 | –
338.15 K, m1 = 0.07 | 269.1 | –
338.15 K, m1 = 0.1001 | 272.8 | –
338.15 K, m1 = 0.2002 | 272.4 | –
338.15 K, m1 = 0.4 | 269.46 | –
338.15 K, m1 = 0.599 | 276.4 | –
338.15 K, m1 = 0.8028 | 268.26 | –
338.15 K, m1 = 1 | 267.6 | –
343.15 K, m1 = 0.015 | 268 | –
343.15 K, m1 = 0.04 | 267.1 | –
343.15 K, m1 = 0.07 | 270.8 | –
343.15 K, m1 = 0.1001 | 274.1 | –
343.15 K, m1 = 0.2002 | 273.7 | –
343.15 K, m1 = 0.4 | 271.09 | –
343.15 K, m1 = 0.599 | 277.9 | –
343.15 K, m1 = 0.8028 | 269.89 | –
343.15 K, m1 = 1 | 269.2 | –
348.15 K, m1 = 0.015 | 271 | 974.89
348.15 K, m1 = 0.04 | 268.3 | 974.87
348.15 K, m1 = 0.07 | 272.5 | 974.87
348.15 K, m1 = 0.1001 | 275.2 | 974.82
348.15 K, m1 = 0.2002 | 274.9 | 974.63
348.15 K, m1 = 0.4 | 272.57 | 974.29
348.15 K, m1 = 0.599 | 279.4 | 974.05
348.15 K, m1 = 0.8028 | 271.43 | 973.79
348.15 K, m1 = 1 | 270.73 | 973.51
353.15 K, m1 = 0.015 | 273 | –
353.15 K, m1 = 0.04 | 269.5 | –
353.15 K, m1 = 0.07 | 274 | –
353.15 K, m1 = 0.1001 | 276.3 | –
353.15 K, m1 = 0.2002 | 276 | –
353.15 K, m1 = 0.4 | 273.95 | –
353.15 K, m1 = 0.599 | 280.7 | –
353.15 K, m1 = 0.8028 | 272.85 | –
353.15 K, m1 = 1 | 272.12 | –
358.15 K, m1 = 0.015 | 274 | 968.67
358.15 K, m1 = 0.04 | 270.2 | 968.65
358.15 K, m1 = 0.07 | 275.5 | 968.63
358.15 K, m1 = 0.1001 | 277.5 | 968.56
358.15 K, m1 = 0.2002 | 277.2 | 968.36
358.15 K, m1 = 0.4 | 275.31 | 967.97
358.15 K, m1 = 0.599 | 281.9 | 967.67
358.15 K, m1 = 0.8028 | 274.18 | 967.36
358.15 K, m1 = 1 | 273.45 | 967.06
363.15 K, m1 = 0.015 | 276 | –
363.15 K, m1 = 0.04 | 270.5 | –
363.15 K, m1 = 0.07 | 277.1 | –
363.15 K, m1 = 0.1001 | 278.7 | –
363.15 K, m1 = 0.2002 | 278.5 | –
363.15 K, m1 = 0.4 | 276.62 | –
363.15 K, m1 = 0.599 | 283.1 | –
363.15 K, m1 = 0.8028 | 275.42 | –
363.15 K, m1 = 1 | 274.69 | –
368.15 K, m1 = 0.015 | 277 | 961.97
368.15 K, m1 = 0.04 | 270.9 | 961.92
368.15 K, m1 = 0.07 | 278.3 | 961.9
368.15 K, m1 = 0.1001 | 279.7 | 961.83
368.15 K, m1 = 0.2002 | 279.5 | 961.62
368.15 K, m1 = 0.4 | 277.76 | 961.19
368.15 K, m1 = 0.599 | 284.1 | 960.81
368.15 K, m1 = 0.8028 | 276.51 | 960.43
368.15 K, m1 = 1 | 275.75 | 960.09
373.15 K, m1 = 0.015 | 277 | –
373.15 K, m1 = 0.04 | 270.8 | –
373.15 K, m1 = 0.07 | 279.3 | –
373.15 K, m1 = 0.1001 | 280.7 | –
373.15 K, m1 = 0.2002 | 280.5 | –
373.15 K, m1 = 0.4 | 278.82 | –
373.15 K, m1 = 0.599 | 285.12 | –
373.15 K, m1 = 0.8028 | 277.53 | –
373.15 K, m1 = 1 | 276.77 | –
378.15 K, m1 = 0.015 | 275 | –
378.15 K, m1 = 0.04 | 270.6 | –
378.15 K, m1 = 0.07 | 280 | –
378.15 K, m1 = 0.1001 | 281.5 | –
378.15 K, m1 = 0.2002 | 281.4 | –
378.15 K, m1 = 0.4 | 279.75 | –
378.15 K, m1 = 0.599 | 286.01 | –
378.15 K, m1 = 0.8028 | 278.43 | –
378.15 K, m1 = 1 | 277.65 | –
383.15 K, m1 = 0.015 | 273 | –
383.15 K, m1 = 0.04 | 270.2 | –
383.15 K, m1 = 0.07 | 280.4 | –
383.15 K, m1 = 0.1001 | 282.2 | –
383.15 K, m1 = 0.2002 | 282.2 | –
383.15 K, m1 = 0.4 | 280.52 | –
383.15 K, m1 = 0.599 | 286.77 | –
383.15 K, m1 = 0.8028 | 279.21 | –
383.15 K, m1 = 1 | 278.41 | –
388.15 K, m1 = 0.015 | 273 | –
388.15 K, m1 = 0.04 | 270.5 | –
388.15 K, m1 = 0.07 | 281.2 | –
388.15 K, m1 = 0.1001 | 282.6 | –
388.15 K, m1 = 0.2002 | 282.8 | –
388.15 K, m1 = 0.4 | 281.15 | –
388.15 K, m1 = 0.599 | 287.45 | –
388.15 K, m1 = 0.8028 | 279.89 | –
388.15 K, m1 = 1 | 279.13 | –
393.15 K, m1 = 0.015 | 278 | –
393.15 K, m1 = 0.04 | 273.2 | –
393.15 K, m1 = 0.07 | 282.4 | –
393.15 K, m1 = 0.1001 | 281.9 | –
393.15 K, m1 = 0.2002 | 282.8 | –
393.15 K, m1 = 0.4 | 281.41 | –
393.15 K, m1 = 0.599 | 287.87 | –
393.15 K, m1 = 0.8028 | 280.37 | –
393.15 K, m1 = 1 | 279.71 | –
